Reference: patent publication US12458622B2, “Methods of treatment of coronavirus-induced inflammation conditions” (priority 2020, dated 2025)
Like-named read-outs stand apart in the source and are kept apart here.

Columns and labels:
BV2 microglial cells = experiment: Aβ42 uptake, confocal microscopy and ELISA; format: cell-based; details: naive BV2 cells, 16 hours pretreatment then 2 hours with Aβ42, vs DMSO
Protocol: After incubation, the cells were labeled with a plasma membrane dye (PM, green) and imaged.

[1] = test system: BV2 cells stably expressing CD33 (BV2-CD33WT); experiment: Aβ42 uptake, ELISA; format: cell-based; details: 16 hours pretreatment then 2 hours with Aβ42, vs DMSO
[2] = test system: HMC3 human microglia cells; experiment: MSD U-PLEX cytokine secretion induced by TNF-α; format: cell-based; details: TNF-α induced, 24 hr; for inhibition at 3 µM: Homo sapiens, HMC3
Protocol: (§1) Human microglial cell line HMC3 (CRL-3304) was purchased from ATCC (American Type Culture Collection). HMC3 cell line was cultured in DMEM medium with 10% FBS, 1% L-glutamine, and 1% penicillin/streptomycin. Cells were maintained in 37° C. incubator at 5% CO2.
HMC3 cells were resuspended, counted using the LUNA-II Automated Cell Counter, seeded in the 6-well plate (400 K cells/2 mL medium/well), and incubated overnight to allow cells to attach. The media and detached cells were removed next day. The cell layer was washed three times in PBS and once in serum- and phenolred-free DMEM (SPFM). […] The conditioned medium was collected and centrifuged at 1,000×RCF (g) for 5 min to pellet detached cells and large debris, which was subsequently passed through a 0.22 μm filter with PVDF membrane to remove smaller debris. Samples of the supernatant medium were put in a CoolRack (#07210041, Fisher Scientific) on dry ice for Snap-freezing and kept at −80° C. until use.
Meso-scale U-PLEX plates that detect a cytokine panel including IL-1β, IL-2, IL-4, IL-6, IL-8, IL-10, IFN-γ, TNF-α, and a chemokine panel including IP-10/CXCL10, MCP-1/CCL2, MIP-1α/CCL3, MIP-1P/CCL4, Eotaxin/CCL11, were used as per manufacture's protocol. 25 μL of the conditioned medium was used in each well of the MSD plates to detect the analytes. The plates were then analyzed on an MSD QuickPlex SQ120 instrument.
(§2) All the data were presented as mean±standard error from at least three times, each done in triplicate. The statistical significance between two groups was determined by Student's t test, whereas the comparisons of multiple groups were carried out by one-way ANOVA, followed by Bonferroni's post-test using GraphPad Prism 7 (GraphPad Software, Inc.). A probability value of * p<0.05 was considered to be significant.

[3] = test system: HMC3 human microglia cells; experiment: Cell viability assay by AO/PI stain; format: cell-based; details: 0.3 μM, TNF-α 0.3 μg/mL
Protocol: as §1
HMC3 cells were resuspended, counted using the LUNA-II Automated Cell Counter, seeded in the 6-well plate (300 K cells/2 mL medium/well), and incubated overnight to allow cells to attach. Cells were treated with TNF-α or IFN-γ at five different concentrations (0, 10, 30, 100, 300 ng/mL) for 24 hr to induce cell activation. The supernatant medium was completely aspirated and 1 mL of fresh DMEM was added to wash the cell layer to remove detached cells and debris. The attached cells were resuspended and washed with PBS. Cells were washed with FACS buffer (2% FBS in PBS) prior to incubation with Zombie Violet Fixable Viability Dye (#423114, Biolegend, 1:500 dilution) and Human Fe Receptor Blocking Solution (#422302, Biolegend, 1:20) diluted in FACS buffer at RT for 10 min in the dark. Cells were then washed with FACS buffer and incubated at RT for 20 min with the following cell-surface antibodies: FITC anti-MHC II (#361706, Biolegend), PerCP/Cy5.5 anti-CD11b (#301328, Biolegend), BV605 anti-CD40 (#334336, Biolegend), PE anti-CD86 (#374206, Biolegend), PE/Cy7 anti-CD163 (#326514, Biolegend), APC anti-CD206 (#321110, Biolegend), and PerCP/Cy5.5 anti-CD14 (#367110, Biolegend). All of the cell-surface antibodies were diluted 1:20 in FACS buffer. Cells were permeabilized using the Transcription Factor Fixation/Permeabilization Buffer Set (#424401, Biolegend). Then cells were incubated with the following intracellular antibodies: APC/Cy7 anti-CD68 (#333822, Biolegend), purified anti-IBA1 (#PA5-27436, Invitrogen), Goat anti-Rabbit-Alexa Fluor 647 (#A21245, Invitrogen), purified anti-GFAP (#644702, Biolegend), and Goat anti-Mouse-Alexa Fluor 488 (#11029, Invitrogen). All of the intracellular antibodies were diluted 1:100 in the Permeabilization buffer (lx). Cells were washed with Permeabilization buffer and fixed in Fixation Buffer (#420801, Biolegend). Flow cytometry was performed using the Attune NxT Acoustic Focusing Cytometer (Thermo Fisher Scientific). Analysis of flow cytometry data was performed via FCS Express 7 (DeNovo Software).
Cell viability was assessed with a LUNA-FL Automated fluorescence cell counter. Viable nucleated cells show green fluorescence and dying nucleated cells show red fluorescence. 18 µL of sample was mixed with 2 μL Acridine Orange/Propidium Iodide (AO/PI) Stain.
as §2

Rabbit = details: Oral; cited from earlier work
Stump-tailed Monkeys = details: cited from earlier work
Squirrel Monkeys = details: 6 months, cited from earlier work
[4] = cited from earlier work
TgSOD1^G93A mice = experiment: Meso Scale Discovery multi-spot cytokine assay in spinal cord and plasma of TgSOD1 mice; details: 6.3 mg/kg i.p.
[5] = TgSOD1-Cromolyn vs TgSOD1-Vehicle, p=0.0273

O=C(O)c1cc(=O)c2c(OCC(O)COc3cccc4oc(C(=O)O)cc(=O)c34)cccc2o1 [cromolyn]
Aβ42 uptake (BV2 microglial cells): increased Aβ42 uptake
Internalized Aβ42 [1]: increased levels of internalized Aβ42
IFN-γ concentration ([2]; 0.3 μM): decreased
IL-1β concentration ([2]; 0.3 μM): decreased
IL-6 concentration ([2]; 0.3 μM): decreased
IL-8 concentration ([2]; 0.3 μM): decreased
inhibition at 3 µM ([2]; read-out: inhibition of IFN-γ): > 40%
inhibition at 3 µM ([2]; read-out: inhibition of IL-1β): > 40%
inhibition at 3 µM ([2]; read-out: inhibition of IL-6): > 40%
inhibition at 3 µM ([2]; read-out: inhibition of IL-8): 25.8%
TNF-α induced cell death [3]: significantly reduced cell death
LD50 Value (Rabbit): >8 gm/kg
Survival until the scheduled necropsy (Stump-tailed Monkeys; single IV dose 333 mg/kg, 4 to 10-day observation): given 333 mg/kg survived
Clinical signs (Stump-tailed Monkeys; single IV dose 5082 mg/kg): stertorous breathing,
Time to death of one monkey (Stump-tailed Monkeys; single IV dose 5082 mg/kg): mg/kg died within 4 hours
Ill health, general toxicity, or nasal irritation (Squirrel Monkeys; 2% cromolyn 0, 2, 6, 12 mg/day): No signs of ill health,
Ill health, general toxicity, or nasal irritation (Squirrel Monkeys; 4% cromolyn 0, 5, 16, 32 mg/day): No signs of ill health,
Adverse effects in repeat dose studies ([4]; all routes of administration): No adverse effects
Renal toxicity ([4]; dosing of high concentration, precipitation in the renal tubules): renal damage was observed
IL-10 level in plasma (TgSOD1^G93A mice; TgSOD1-Cromolyn vs TgSOD1-Vehicle, p=0.0095): significantly decreased
IL-2 level in plasma (TgSOD1^G93A mice; TgSOD1-Cromolyn vs TgSOD1-Vehicle, p=0.0211): significantly decreased
IL-6 level in plasma (TgSOD1^G93A mice; [5]): significantly decreased
TNFα level in spinal cord (TgSOD1^G93A mice; [5]): significant decrease
TNFα level in plasma (TgSOD1^G93A mice; TgSOD1-Cromolyn vs TgSOD1-Vehicle, p=0.110): trend towards a decrease
IL-13 level in plasma (TgSOD1^G93A mice; between groups, FIG. 2A): no statistically significant difference
IL-5 level in plasma (TgSOD1^G93A mice; between groups, FIG. 2C): no statistically significant difference
